Data as given in patent US8952024B2, “Herbicidal pyrimidone derivatives” (E I du Pont de Nemours and Company, priority 2009, dated 2015).

Tests used:
Assay in all cases: Test D pre-/postemergence plant response
Type in all cases: in vivo
[1] = test system: dallisgrass (Paspalum dilatatum)
How it was run: (§1)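 Seeds were sown in a loam–sand blend and sprayed preemergence with compound in a non-phytotoxic solvent mixture containing surfactant; plants at 2–18 cm (1- to 4-leaf stage) received the same formulation postemergence. After 14 to 21 days in a greenhouse, injury was rated visually against untreated controls (0 = no effect, 100 = complete control).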

[2] = test system: signalgrass (broadleaf signalgrass, Brachiaria platyphylla)
How it was run: as §1

[3] = test system: bluegrass (annual bluegrass, Poa annua)
How it was run: as §1

[4] = test system: purslane (common purslane, Portulaca oleracea)
How it was run: as §1

[5] = test system: Russian thistle (Salsola kali)
How it was run: as §1

[6] = test system: itchgrass (Rottboellia cochinchinensis)
How it was run: as §1

[7] = test system: nutsedge (purple nutsedge, Cyperus rotundus)
How it was run: as §1

[8] = test system: green foxtail (Setaria viridis)
How it was run: as §1

[9] = test system: barnyardgrass (Echinochloa crus-galli)
How it was run: as §1

[10] = test system: sowthistle (common sowthistle, Sonchus oleraceous)
How it was run: as §1

[11] = test system: mallow (common mallow, Malva sylvestris)
How it was run: as §1

[12] = test system: goosegrass (Eleusine indica)
How it was run: as §1

[13] = test system: quackgrass (Elytrigia repens)
How it was run: as §1

[14] = test system: ragweed (common ragweed, Ambrosia elatior)
How it was run: as §1

[15] = test system: johnsongrass (Sorghum halepense)
How it was run: as §1

[16] = test system: guineagrass (Panicum maximum)
How it was run: as §1

[17] = Postemergence, 16 g ai/ha, scale 0 to 100
[18] = Postemergence, 31 g ai/ha, scale 0 to 100
[19] = Postemergence, 125 g ai/ha, scale 0 to 100 (0 no effect, 100 complete control)
[20] = Postemergence, 62 g ai/ha, scale 0 to 100 (0 no effect, 100 complete control)
[21] = Preemergence, 16 g ai/ha, scale 0 to 100, 0 no effect, 100 complete control
[22] = Preemergence, 31 g ai/ha, scale 0 to 100 (0 no effect, 100 complete control)
[23] = Preemergence, 62 g ai/ha, scale 0 to 100
[24] = Preemergence, 125 g ai/ha, scale 0 to 100
[25] = Postemergence, 31 g ai/ha, scale 0 to 100 (0 no effect, 100 complete control)
[26] = Postemergence, 250 g ai/ha, scale 0 to 100 (0 no effect, 100 complete control)

SMILES: O=C1CCCC(O)=C1C(=O)c1cnc(-c2ccccc2)n(C2CCCCC2)c1=O [Compound 128, 3-cyclohexyl-5-[(2-hydroxy-6-oxo-1-cyclohexen-1-yl)carbonyl]-2-phenyl-4(3H)-pyrimidinone]
- Plant response rating, Dallisgrass [1, 17]: 10
- Plant response rating, Dallisgrass [1, 18]: 20
- Plant response rating, Dallisgrass [1, 19]: 60
- Plant response rating, Dallisgrass [1, 20]: 30
- Plant response rating, Dallisgrass [1, 21]: 0
- Plant response rating, Dallisgrass [1, 22]: 20
- Plant response rating, Dallisgrass [1, 23]: 65
- Plant response rating, Dallisgrass [1, 24]: 98
- Plant response rating, Signalgrass [2, 17]: 0
- Plant response rating, Signalgrass [2, 18]: 30
- Plant response rating, Signalgrass [2, 19]: 35
- Plant response rating, Signalgrass [2, 20]: 35
- Plant response rating, Signalgrass [2, 21]: 0
- Plant response rating, Signalgrass [2, 22]: 0
- Plant response rating, Signalgrass [2, 24]: 5
- Plant response rating, Bluegrass [3, 17]: 0
- Plant response rating, Bluegrass [3, 25]: 0
- Plant response rating, Bluegrass [3, 19]: 0
- Plant response rating, Bluegrass [3, 20]: 0
- Plant response rating, Bluegrass [3, 21]: 0
- Plant response rating, Bluegrass [3, 22]: 0
- Plant response rating, Bluegrass [3, 23]: 25
- Plant response rating, Bluegrass [3, 24]: 25
- Plant response rating, Purslane [4, 17]: 30
- Plant response rating, Purslane [4, 18]: 30
- Plant response rating, Purslane [4, 19]: 50
- Plant response rating, Purslane [4, 20]: 30
- Plant response rating, Purslane [4, 21]: 0
- Plant response rating, Purslane [4, 22]: 0
- Plant response rating, Purslane [4, 23]: 100
- Plant response rating, Purslane [4, 24]: 100
- Plant response rating, Russian Thistle [5, 17]: 0
- Plant response rating, Russian Thistle [5, 18]: 0
- Plant response rating, Russian Thistle [5, 20]: 20
- Plant response rating, Russian Thistle [5, 22]: 0
- Plant response rating, Russian Thistle [5, 24]: 100
- Plant response rating, Itchgrass [6, 17]: 0
- Plant response rating, Itchgrass [6, 18]: 40
- Plant response rating, Itchgrass [6, 19]: 65
- Plant response rating, Itchgrass [6, 20]: 40
- Plant response rating, Itchgrass [6, 21]: 0
- Plant response rating, Itchgrass [6, 22]: 0
- Plant response rating, Itchgrass [6, 23]: 0
- Plant response rating, Itchgrass [6, 24]: 20
- Plant response rating, Nutsedge, Purple [7, 17]: 0
- Plant response rating, Nutsedge, Purple [7, 18]: 10
- Plant response rating, Nutsedge, Purple [7, 19]: 50
- Plant response rating, Nutsedge, Purple [7, 20]: 35
- Plant response rating, Nutsedge, Purple [7, 21]: 0
- Plant response rating, Nutsedge, Purple [7, 22]: 0
- Plant response rating, Nutsedge, Purple [7, 23]: 0
- Plant response rating, Nutsedge, Purple [7, 24]: 70
- Plant response rating, Foxtail, Green [8, 17]: 25
- Plant response rating, Foxtail, Green [8, 18]: 40
- Plant response rating, Foxtail, Green [8, 19]: 70
- Plant response rating, Foxtail, Green [8, 20]: 65
- Plant response rating, Foxtail, Green [8, 21]: 0
- Plant response rating, Foxtail, Green [8, 22]: 0
- Plant response rating, Foxtail, Green [8, 23]: 0
- Plant response rating, Foxtail, Green [8, 24]: 0
- Plant response rating, Barnyardgrass [9, 17]: 35
- Plant response rating, Barnyardgrass [9, 25]: 70
- Plant response rating, Barnyardgrass [9, 19]: 90
- Plant response rating, Barnyardgrass [9, 20]: 70
- Plant response rating, Barnyardgrass [9, 21]: 0
- Plant response rating, Barnyardgrass [9, 22]: 0
- Plant response rating, Barnyardgrass [9, 23]: 5
- Plant response rating, Barnyardgrass [9, 24]: 15
- Plant response rating, Sowthistle [10, 17]: 100
- Plant response rating, Sowthistle [10, 18]: 100
- Plant response rating, Sowthistle [10, 19]: 100
- Plant response rating, Sowthistle [10, 20]: 100
- Plant response rating, Sowthistle [10, 21]: 80
- Plant response rating, Sowthistle [10, 22]: 80
- Plant response rating, Sowthistle [10, 24]: 100
- Plant response rating, Mallow [11, 17]: 5
- Plant response rating, Mallow [11, 18]: 5
- Plant response rating, Mallow [11, 19]: 40
- Plant response rating, Mallow [11, 20]: 40
- Plant response rating, Mallow [11, 22]: 70
- Plant response rating, Mallow [11, 23]: 70
- Plant response rating, Mallow [11, 24]: 100
- Plant response rating, Goosegrass [12, 17]: 35
- Plant response rating, Goosegrass [12, 18]: 40
- Plant response rating, Goosegrass [12, 19]: 70
- Plant response rating, Goosegrass [12, 20]: 65
- Plant response rating, Goosegrass [12, 21]: 0
- Plant response rating, Goosegrass [12, 22]: 5
- Plant response rating, Goosegrass [12, 23]: 65
- Plant response rating, Goosegrass [12, 24]: 90
- Plant response rating, Quackgrass [13, 17]: 0
- Plant response rating, Quackgrass [13, 18]: 0
- Plant response rating, Quackgrass [13, 19]: 5
- Plant response rating, Quackgrass [13, 20]: 0
- Plant response rating, Quackgrass [13, 21]: 0
- Plant response rating, Quackgrass [13, 22]: 0
- Plant response rating, Quackgrass [13, 24]: 0
- Plant response rating, Ragweed [14, 18]: 75
- Plant response rating, Ragweed [14, 19]: 90
- Plant response rating, Ragweed [14, 20]: 90
- Plant response rating, Ragweed [14, 21]: 0
- Plant response rating, Ragweed [14, 22]: 75
- Plant response rating, Ragweed [14, 24]: 100
- Plant response rating, Johnsongrass [15, 17]: 35
- Plant response rating, Johnsongrass [15, 18]: 40
- Plant response rating, Johnsongrass [15, 19]: 65
- Plant response rating, Johnsongrass [15, 20]: 50
- Plant response rating, Johnsongrass [15, 21]: 0
- Plant response rating, Johnsongrass [15, 22]: 0
- Plant response rating, Johnsongrass [15, 23]: 15
- Plant response rating, Johnsongrass [15, 24]: 65
- Plant response rating, Guineagrass [16, 17]: 20
- Plant response rating, Guineagrass [16, 18]: 30
- Plant response rating, Guineagrass [16, 19]: 35
- Plant response rating, Guineagrass [16, 20]: 30
- Plant response rating, Guineagrass [16, 21]: 0
- Plant response rating, Guineagrass [16, 22]: 0
- Plant response rating, Guineagrass [16, 23]: 0
- Plant response rating, Guineagrass [16, 24]: 0

SMILES: CCCn1c(-c2ccccc2)ncc(C(=O)C2=C(O)C3CCC(C3)C2=O)c1=O (stereo not drawn) [Compound 226]
- Plant response rating, Dallisgrass [1, 19]: 30
- Plant response rating, Dallisgrass [1, 26]: 35
- Plant response rating, Dallisgrass [1, 20]: 20
- Plant response rating, Signalgrass [2, 19]: 65
- Plant response rating, Signalgrass [2, 26]: 65
- Plant response rating, Signalgrass [2, 20]: 40
- Plant response rating, Bluegrass [3, 25]: 0
- Plant response rating, Bluegrass [3, 19]: 10
- Plant response rating, Bluegrass [3, 26]: 30
- Plant response rating, Bluegrass [3, 20]: 10
- Plant response rating, Purslane [4, 19]: 65
- Plant response rating, Purslane [4, 26]: 70
- Plant response rating, Purslane [4, 20]: 50
- Plant response rating, Russian Thistle [5, 19]: 40
- Plant response rating, Russian Thistle [5, 26]: 70
- Plant response rating, Itchgrass [6, 19]: 70
- Plant response rating, Itchgrass [6, 26]: 90
- Plant response rating, Itchgrass [6, 20]: 70
- Plant response rating, Nutsedge, Purple [7, 19]: 0
- Plant response rating, Nutsedge, Purple [7, 26]: 5
- Plant response rating, Nutsedge, Purple [7, 20]: 0
- Plant response rating, Foxtail, Green [8, 19]: 80
- Plant response rating, Foxtail, Green [8, 26]: 98
- Plant response rating, Foxtail, Green [8, 20]: 70
- Plant response rating, Barnyardgrass [9, 25]: 85
- Plant response rating, Barnyardgrass [9, 19]: 95
- Plant response rating, Barnyardgrass [9, 26]: 95
- Plant response rating, Barnyardgrass [9, 20]: 85
- Plant response rating, Sowthistle [10, 19]: 98
- Plant response rating, Sowthistle [10, 26]: 98
- Plant response rating, Sowthistle [10, 20]: 98
- Plant response rating, Mallow [11, 19]: 50
- Plant response rating, Mallow [11, 26]: 65
- Plant response rating, Mallow [11, 20]: 50
- Plant response rating, Goosegrass [12, 19]: 70
- Plant response rating, Goosegrass [12, 26]: 75
- Plant response rating, Goosegrass [12, 20]: 70
- Plant response rating, Quackgrass [13, 19]: 20
- Plant response rating, Quackgrass [13, 26]: 35
- Plant response rating, Quackgrass [13, 20]: 0
- Plant response rating, Ragweed [14, 19]: 90
- Plant response rating, Ragweed [14, 26]: 98
- Plant response rating, Ragweed [14, 20]: 90
- Plant response rating, Johnsongrass [15, 19]: 80
- Plant response rating, Johnsongrass [15, 26]: 90
- Plant response rating, Johnsongrass [15, 20]: 80
- Plant response rating, Guineagrass [16, 19]: 80
- Plant response rating, Guineagrass [16, 26]: 80
- Plant response rating, Guineagrass [16, 20]: 80
